One data set has as its system E. coli K12 MG1655. In words: MIC testing by CLSI broth microdilution in M9-based minimal media ATCC 2511, with or without methionine. Type of data set: cell-based, Escherichia coli. To be noted: for MIC90: Escherichia coli. The method, then:
To explore the SAR around the right hand aryl portion of the TAT series (Table 1), compounds were evaluated for their in vitro antibacterial activity against E. coli in the M9-based minimal media ATCC 2511. […]. An MIC shift between the two medias was used to indicate that antibacterial activity of the compounds remained on target, and this was happily seen with all of the most MIC active compounds generated in this study. Within the first series of compounds in Table 1, modifications to the phenyl ring are generally well tolerated. MICs remain within 2-fold of the initial hit 1 for the fluoro- and cyano- substituted compounds 1–8. […]. Incorporating the electron-donating group -OMe and sterically bulky iodine group in both ortho and para position, 17–20, maintained activity, whereas the introduction of the strong electron-withdrawing -CF3 group, 21 and 22, led to poorer MIC activity. […] The phenyl ring isosteres—thiazoles 25 and 26—both retained good MIC activity. Adding a methyl branch to the thioacetamide linker 28 and 29 led to a striking loss of activity. Replacement of the aryl group with the aliphatic groups cyclohexyl 31, cyclopentyl 32, tert-butyl groups 33 all reduced activity.
MICs were determined following CLSI broth microdilution susceptibility M100 guidelines. Compound solutions were prepared in DMSO and serially diluted 1:2 in 100 μL/well in 96 well round-bottom plates. E. coli K12 MG1655 was acquired from ATCC and strictly maintained in the M9-based media ATCC 2511. ATCC 2511 was also used for all further cultivation and MIC testing. Bacteria were grown from a single colony to a mid-log OD600 and frozen in 0.5 mL aliquots. These aliquots were used to directly inoculate the assay plates by diluting to an OD600 of 0.001 and plating 100 μL per well, allowing for ~10^5 CFU to be added to each well.

A short description of a further data set: Solubility. In kind it is physicochemical. The method, then: (§1) The in vitro ADME values (solubility, mouse plasma stability, human plasma stability, mouse metabolic stability, and human metabolic stability) were determined as previously reported.
A further data set is described as follows: Plasma stability (mouse). Type of data set: in vitro ADME. To be noted: read-out: Plasma Stability (Mouse) t1/2 (converted). The method, then:
as §1

The next data set is described as follows: Plasma stability (human). In kind it is in vitro ADME. As to conditions: read-out: Plasma Stability (Human) t1/2 (converted). The method, then:
as §1

Data set [1] can be described thus: Metabolic (microsomal) stability (mouse). To be noted: microsomes. In kind it is in vitro ADME. Here is the method:
as §1

A short description of data set [2]: Metabolic (microsomal) stability (human). In kind it is in vitro ADME. As to conditions: microsomes. The method, then: as §1
The nature of data set [3]: Pharmacokinetic evaluation in mice, single intravenous dose. In kind it is in vivo. As to conditions: 10 mg/kg, plasma. Here is the method:
Pharmacokinetic parameters of 25 in plasma following a single intravenous dose of 10mg/kg administration to male Balb/c mice were done at SAI LifeSciences Ltd., Telangana, India (Table S2). Briefly, nine male mice were used in this study. All the animals were administered with 25 solution formulation in 5% NMP, 5% Solutol HS-15 and 90% Normal saline intravenously at 10 mg/kg dose. Blood samples (~60 μL) were collected from retro orbital plexus under light isoflurane anesthesia at following time points at Pre-dose, 0.08, 0.25, 0.5, 1, 2, 4, 8 and 24 h. Blood samples were collected from a set of three mice at each time point (sparse sampling) in labeled microcentrifuge tube containing 20% K2EDTA solution as anticoagulant. Plasma samples were separated by centrifugation of whole blood and stored below −70 ± 10 °C until bioanalysis. All samples were processed for analysis by protein precipitation using acetonitrile (ACN) and analyzed with fit-for-purpose LC/MS/MS method (LLOQ: 5.04 ng/mL). Pharmacokinetic parameters were calculated using the non-compartmental analysis tool of Phoenix WinNonlin (Version 7.0). All procedures of the study were in accordance with the guidelines provided by the Committee for the Purpose of Control and Supervision of Experiments on Animals (CPCSEA) as published in The Gazette of India, 15 December 1998. Prior approval of the Institutional Animal Ethics Committee (IAEC) was obtained before initiation of the study.

Structures are written as SMILES. In brackets after ≈: the same amount, converted by molar mass. Several values for one entry are separate records, joined by “and”; a condition that tells them apart may be missing. Equal entries are not always repeated. Where two headings read alike, the source gives them in different places. Some results are limits rather than exact numbers.

By MIC90 is commonly meant the lowest concentration that inhibits either 90% of growth or 90% of the strains tested, depending on the study. What is called solubility is how much of the substance goes into solution per volume. What is called CLint scaled is the rate of metabolic loss divided by the concentration. Low readings indicate greater metabolic stability, high ones faster metabolism. The term AUC(0-inf) denotes the area under the concentration-time curve extrapolated to infinity. As usually defined, the AUC(0-t) is exposure summed from dosing to a finite time, without extrapolation to infinity. Usually clearance stands for a measure of how efficiently the substance is removed, as volume per time. The low end stands for inefficient removal, the high end for efficient removal. On to `O=C(CSc1cnn[nH]1)Nc1nccs1` [Compound 25], for which the MIC90 in the data set on E. coli K12 MG1655 (MG1655, read-out: E. coli K12 MIC90) came out at 12.5 µg/mL (≈ 51.8 µM); in the data set on E. coli K12 MG1655 (No Supplement (N.S.), ATCC 2511 media, 16 h, 37 °C, read-out: E. coli K12 MIC90), 3.1 µg/mL (≈ 12.8 µM). Further, the “E. coli K12 MIC90” value in the data set on E. coli K12 MG1655 (No Supplement (N.S.), ATCC 2511 media, 16 h, 37 °C) was not above 3.1 µg/mL. Besides, in “Solubility” (pH 7.4 (Table S1)), the “%Soluble” value was found to be 87.3%. The solubility in the data set “Solubility” (pH 7.4, aqueous buffer, pH 7.4 (Table S1), read-out: Solubility Avg. Sol) was 21.1 µg/mL and 87.3 µM. Also, the “Avg. Sol” value in the data set “Solubility” (pH = 7.4, average of triplicate ± standard deviation) is reported as 21 ± 1.8 µg/mL. Further, the half-life in the data set “Plasma stability (mouse)” was 13.3 ± 1.6 h; in “Plasma stability (human)” it was 32.1 ± 5.4 h; in data set [1] (read-out: Metabolic Stability (Mouse) t1/2 (converted)), 2 ± 0.1 h; in data set [2] (read-out: Metabolic Stability (Human) t1/2 (converted)), 3.6 ± 0.3 h; in data set [3] (mouse, male Balb/c mice, read-out: T(1/2), elimination half-life (converted)), 0.55 h. The figures for the CLint scaled in data set [1] and in data set [2] were 29.1 mL/min/kg and 5.8 mL/min/kg, respectively. Also, the AUCinf in data set [3] (male Balb/c mice) came to 2807 ng·h/mL. The AUC(0-inf) in data set [3] (male, Balb/c, mouse, iv) worked out at 2810 ng·h/mL. This compound came in with an AUC(0-t) in data set [3] (mouse, male Balb/c mice) of 2800 ng·h/mL. Besides, the C0 in data set [3] (mouse, male Balb/c mice) is 7710 ng/mL. In data set [3] (mouse, male Balb/c mice), this compound yielded a clearance of 59.4 mL/min/kg. Besides, the Vd in data set [3] (mouse, male Balb/c mice, read-out: Vss) was determined as 1.16 L/kg.

These data come from paper PMC8911640, “Synthesis and Structure–Activity Relationship of Thioacetamide-Triazoles against Escherichia coli” (Molecules, 2022).
